“And” between values parts separate entries of the source, which are not always exact repeats. Identical values can stand only once. Like-named read-outs stand apart in the source and are kept apart here. Marks after values point to notes of the source that are not given here.
Key:
S. typhimurium TA98 = details: positive control, 1.25 μg/ plate, TA 98, + S9
S. typhimurium TA100 [1] = details: positive control, 1.25 μg/ plate, TA 100, + S9
S. typhimurium TA97a [2] = details: mutagen alone (Ctrol +), 1.25 μg/ plate, TA 97a, + S9; listed as AA
S. typhimurium TA97a [3] = details: positive control, 1.25 μg/ plate, TA 97, + S9
S. typhimurium TA100 [4] = test system: S. typhimurium TA100

Molecule | Number of revertants (M ± SD)/ plate (S. typhimurium TA98) | Number of revertants (M ± SD)/ plate (S. typhimurium TA100 [1]) | Number of revertants (M ± SD)/ plate (S. typhimurium TA97a [2]) | Number of revertants (M ± SD)/ plate (S. typhimurium TA97a [3]) | Number of revertants (M ± SD)/ plate (S. typhimurium TA100 [4])
Nc1ccc2cc3ccccc3cc2c1 [2-anthramine, 2-aminoanthracene, reference compound] | 1567 ± 115 ^e revertants/plate and 1498 ± 33^ e revertants/plate | 1456 ± 78 ^e revertants/plate and 1072 ± 25^ e revertants/plate | 2312 ± 81 revertants/plate and 1861 ± 23 revertants/plate | 1789 ± 89 ^e revertants/plate and 1861 ± 23 ^e revertants/plate | –
aflatoxin B1 [AFB1, reference compound] | – | – | – | – | 2171 ± 33 revertants/plate and 2200 ± 140 revertants/plate

Reference: paper PMC6268188, “Comparative Studies of the (Anti) Mutagenicity of Baccharis dracunculifolia and Artepillin C by the Bacterial Reverse Mutation Test” (Molecules, 2012)
